The source of these data is US20050197371A1, “Urea derivatives as PDGFR modulators” (Ambit Biosciences Corporation, priority 2003, published 2005).

One experiment concerns the target T1, PDGFRB(DKIN) (PDGFR-β) (Homo sapiens, UniProt P09619).
T1 construct: PDGFRB(DKIN)
Put plainly: Phage-display competitive binding assay, PDGFRB(DKIN). To be noted: T7 phage displaying human PDGFR-β, DKIN construct; read-out: Binding Assay: PDGFRB(DKIN). As for the experimental part: The term “ND” represents non-determined values.
Briefly, T7 phage displaying human PDGFR-β were incubated with an affinity matrix coated with known PDGFR-β inhibitor in the presence of various concentrations of the soluble competitor molecules.
Consider `C[C@H](NC(=O)c1ccc(NC(=O)Nc2cc(C(C)(C)C)on2)cc1)c1ccccc1` [Compound N88], for which the Kd fell in the range of 100 to 1000 nM. Still for that read-out and setting: the same measure for `CC(C)(C)c1cc(NC(=O)Nc2ccc(C(=O)NCc3ccccc3)cc2)no1` [Compound N89]: 100 to 1000 nM; for `CC(C)(C)c1cc(NC(=O)Nc2ccc(C(=O)Nc3ccccc3)cc2)no1` [Compound N90]: 100 to 1000 nM; for `CC(C)(C)c1cc(NC(=O)Nc2ccc(NC(=O)C3CCCCC3)cc2)no1` [Compound N91]: 100 to 1000 nM. Still for that read-out and setting: the same measure for `Cc1ccc(C(=O)Nc2ccc(NC(=O)Nc3cc(C(C)(C)C)on3)cc2)cc1` [Compound N92]: less than 100 nM. On the same count and under the same terms, with `C/C=C/C(=O)Nc1ccc(NC(=O)Nc2cc(C(C)(C)C)on2)cc1` [Compound N93] the figure was 1000 to 10000 nM. Turning to `CC(C)(C)c1cc(NC(=O)Nc2ccc(NC(=O)c3c(Cl)cccc3Cl)cc2)no1` [Compound N94], the Kd was 100 to 1000 nM. As to `CC(C)(C)c1cc(NC(=O)Nc2ccc(NC(=O)c3c(F)cccc3C(F)(F)F)cc2)no1` [Compound N95], the Kd lay in the range of 1000 to 10000 nM. The same measure, in the same setting: with `CC(C)(C)c1cc(NC(=O)Nc2ccc(NC(=O)CCc3ccccc3)cc2)no1` [Compound N96] the figure was 100 to 1000 nM; with `CC(C)(C)c1cc(NC(=O)Nc2ccc(C(=O)NCc3ccc4c(c3)OCO4)cc2)no1` [Compound N97], 1000 to 10000 nM; with `CC(C)(C)c1cc(NC(=O)Nc2ccc(NC(=O)Cc3ccc(OCc4ccccc4)cc3)cc2)no1` [Compound N98], greater than 10000 nM. For the molecule `CC(C)(C)c1cc(NC(=O)Nc2ccc(C(=O)Nc3ccc(OCC4CCC4)cc3)cc2)no1` [Compound N100], the Kd was in the range of 100 to 1000 nM. Same read-out and setting: with `CC(C)(C)OC(=O)Nc1ccc(NC(=O)Nc2cc(C(C)(C)C)on2)cc1` [Compound N101] the figure was 100 to 1000 nM; with `CCN(CC)CCNC(=O)c1ccc(NC(=O)Nc2cc(C(C)(C)C)on2)cc1` [Compound N102], greater than 10000 nM; with `Cc1ccncc1C(=O)Nc1ccc(NC(=O)Nc2cc(C(C)(C)C)on2)cc1` [Compound N104], 100 to 1000 nM. The same measure, in the same setting: the same measure for `COc1cccc(-c2ccc(C(=O)Nc3ccc(NC(=O)Nc4cc(C(C)(C)C)on4)cc3)o2)c1` [Compound N105]: 100 to 1000 nM; for `CC(C)(C)c1cc(NC(=O)Nc2ccc(NC(=O)Cc3csc4ccccc34)cc2)no1` [Compound N107]: 1000 to 10000 nM; for `CC(C)(C)c1cc(NC(=O)Nc2ccc(NC(=O)c3cnc4ccccc4c3)cc2)no1` [Compound N108]: less than 100 nM. In the case of `CC(C)(C)c1cc(NC(=O)Nc2ccc(NC(=O)c3cccc4nsnc34)cc2)no1` [Compound N109], the Kd is less than 100 nM.

Consider `CC(C)(C)c1cc(NC(=O)Nc2ccc(NC(=O)c3ccc4cnccc4n3)cc2)no1` [Compound N110], for which the Kd was less than 100 nM. The same measure, in the same setting: with `CC(C)(C)c1cc(NC(=O)Nc2ccc(NC(=O)c3cccc4c3OCCO4)cc2)no1` [Compound N111] the figure was 100 to 1000 nM; with `CC(C)(C)c1cc(NC(=O)Nc2ccc(NC(=O)c3cc(Cl)cn(Cc4ccccc4)c3=O)cc2)no1` [Compound N112], 100 to 1000 nM; with `COC(=O)c1ccc(C(=O)Nc2ccc(NC(=O)Nc3cc(C(C)(C)C)on3)cc2)nc1` [Compound N113], less than 100 nM.

In the case of `CSc1ncc(Br)c(C(=O)Nc2ccc(NC(=O)Nc3cc(C(C)(C)C)on3)cc2)n1` [Compound N114], the Kd was less than 100 nM.

In the case of `CC(C)(C)c1cc(NC(=O)Nc2ccc(NC(=O)c3cccc4cccnc34)cc2)no1` [Compound N115], the Kd was less than 100 nM.

As for `Cc1nn(C)c(Cl)c1C(=O)Nc1ccc(NC(=O)Nc2cc(C(C)(C)C)on2)cc1` [Compound N116], the Kd was less than 100 nM. Regarding `CC(C)(C)c1cc(NC(=O)Nc2ccc(NC(=O)c3nccc4ccccc34)cc2)no1` [Compound N117], the Kd is less than 100 nM.

On to `COc1ccc(-c2cc(C(=O)Nc3ccc(NC(=O)Nc4cc(C(C)(C)C)on4)cc3)c(C)o2)cc1` [Compound N118], for which the Kd lay within 1000 to 10000 nM. Same read-out and setting: the same measure for `Cn1cc(C(=O)Nc2ccc(NC(=O)Nc3cc(C(C)(C)C)on3)cc2)c2ccccc21` [Compound N119]: less than 100 nM. Same read-out and setting: the same measure for `Cc1ccc(-c2cc(C(=O)Nc3ccc(NC(=O)Nc4cc(C(C)(C)C)on4)cc3)c(C)o2)cc1` [Compound N120]: 1000 to 10000 nM.

Take `Cc1cccc(C(=O)Nc2ccc(NC(=O)Nc3cc(C(C)(C)C)on3)cc2)n1` [Compound N121]: the Kd was less than 100 nM.

Consider `CC(C)(C)c1cc(NC(=O)Nc2ccc(NC(=O)c3ccc4sccc4c3)cc2)no1` [Compound N122], for which the Kd was less than 100 nM. As for `CC(C)(C)c1cc(NC(=O)Nc2ccc(NC(=O)c3cnc(Cl)c(Cl)c3)cc2)no1` [Compound N123], the Kd is 1000 to 10000 nM. For `CC(C)(C)c1cc(NC(=O)Nc2ccc(NC(=O)c3coc(-c4ccc(Cl)cc4)n3)cc2)no1` [Compound N124], the Kd lay within 100 to 1000 nM. On the same count and under the same terms, with `CC(C)(C)c1cc(NC(=O)Nc2ccc(NC(=O)c3ccc(Cl)nc3)cc2)no1` [Compound N125] the figure was 100 to 1000 nM. Turning to `CC(C)(C)c1cc(NC(=O)Nc2ccc(NC(=O)c3cc4cc(Br)ccc4s3)cc2)no1` [Compound N126], the Kd fell in the range of 100 to 1000 nM.

`Cc1ccc2[nH]c(C(=O)Nc3ccc(NC(=O)Nc4cc(C(C)(C)C)on4)cc3)cc2c1` [Compound N127]: the Kd was less than 100 nM. Still for that read-out and setting: with `COc1cc(OC)nc(C2CCCCC2C(=O)Nc2ccc(NC(=O)Nc3cc(C(C)(C)C)on3)cc2)n1` (stereo not drawn) [Compound N129] the figure was 100 to 1000 nM; with `CC(C)(C)c1cc(NC(=O)Nc2ccc(NC(=O)c3ccc(Cl)nc3Cl)cc2)no1` [Compound N130], 100 to 1000 nM. On the same count and under the same terms, with `Cc1ccc2sc(C(=O)Nc3ccc(NC(=O)Nc4cc(C(C)(C)C)on4)cc3)cc2c1` [Compound N133] the figure was less than 100 nM. For `CC(C)(C)c1cc(NC(=O)Nc2ccc(NC(=O)c3cnc4cc(C(F)(F)F)ccc4c3O)cc2)no1` [Compound N146], the Kd lay within 1000 to 10000 nM.

On to `CC(C)(C)c1cc(NC(=O)Nc2ccc(NC(=O)c3cnnc4ccccc34)cc2)no1` [Compound N147], for which the Kd is less than 100 nM. Consider `CC(C)(C)c1cc(NC(=O)Nc2ccc(NC(=O)c3c4ccccc4nc4ccccc34)cc2)no1` [Compound N148], for which the Kd was in the range of 1000 to 10000 nM. The same measure, in the same setting: the same measure for `CC(C)(C)c1cc(NC(=O)Nc2ccc(NC(=O)c3cnc4ccccc4n3)cc2)no1` [Compound N149]: 1000 to 10000 nM; for `CC(C)(C)c1cc(NC(=O)Nc2ccc(NC(=O)c3ccc4ncccc4c3)cc2)no1` [Compound N151]: less than 100 nM; for `CC(C)(C)c1cc(NC(=O)Nc2ccc(C(=O)Nc3ccc(F)cc3F)cc2)no1` [Compound N153]: 100 to 1000 nM. Turning to `CC(C)(C)c1cc(NC(=O)Nc2ccc(C(=O)Nc3nccnc3N)cc2)no1` [Compound N157], the Kd is less than 100 nM.

For `CN(C)c1ccc(C(=O)Nc2ccc(NC(=O)Nc3cc(C(C)(C)C)on3)cc2)cn1` [Compound N159], the Kd is less than 100 nM. The same measure, in the same setting: the same measure for `Cc1cnc(C(=O)Nc2ccc(NC(=O)Nc3cc(C(C)(C)C)on3)cc2)c(C(=O)O)n1` [Compound N160]: less than 100 nM; for `CC(C)(C)c1cc(NC(=O)Nc2ccc(NC(=O)c3cc4ccccc4[nH]3)cc2)no1` [Compound N161]: less than 100 nM.

The experiment is the same for the next values; noted with them: read-out: Binding Assay: PDGFRB(DKIN); T7 phage displaying human PDGFR-β, DKIN construct.
`CC(C)(C)c1cc(NC(=O)Nc2ccc(NC(=O)c3cc4ccccc4cn3)cc2)no1` [Compound N106]: the Kd is less than 100 nM.
